Test results as given in US12491243B2, “Formulation containing TLR agonist and methods of use” (ACCESS TO ADVANCED HEALTH INSTITUTE, priority 2016, dated 2025).

What was measured:
human TLR7 = molecular target: T1, human TLR7 (Homo sapiens, UniProt Q9NYK1); conditions: in vitro; reference (5); cited from earlier work
T1 sequence (Q9NYK1 27-1049): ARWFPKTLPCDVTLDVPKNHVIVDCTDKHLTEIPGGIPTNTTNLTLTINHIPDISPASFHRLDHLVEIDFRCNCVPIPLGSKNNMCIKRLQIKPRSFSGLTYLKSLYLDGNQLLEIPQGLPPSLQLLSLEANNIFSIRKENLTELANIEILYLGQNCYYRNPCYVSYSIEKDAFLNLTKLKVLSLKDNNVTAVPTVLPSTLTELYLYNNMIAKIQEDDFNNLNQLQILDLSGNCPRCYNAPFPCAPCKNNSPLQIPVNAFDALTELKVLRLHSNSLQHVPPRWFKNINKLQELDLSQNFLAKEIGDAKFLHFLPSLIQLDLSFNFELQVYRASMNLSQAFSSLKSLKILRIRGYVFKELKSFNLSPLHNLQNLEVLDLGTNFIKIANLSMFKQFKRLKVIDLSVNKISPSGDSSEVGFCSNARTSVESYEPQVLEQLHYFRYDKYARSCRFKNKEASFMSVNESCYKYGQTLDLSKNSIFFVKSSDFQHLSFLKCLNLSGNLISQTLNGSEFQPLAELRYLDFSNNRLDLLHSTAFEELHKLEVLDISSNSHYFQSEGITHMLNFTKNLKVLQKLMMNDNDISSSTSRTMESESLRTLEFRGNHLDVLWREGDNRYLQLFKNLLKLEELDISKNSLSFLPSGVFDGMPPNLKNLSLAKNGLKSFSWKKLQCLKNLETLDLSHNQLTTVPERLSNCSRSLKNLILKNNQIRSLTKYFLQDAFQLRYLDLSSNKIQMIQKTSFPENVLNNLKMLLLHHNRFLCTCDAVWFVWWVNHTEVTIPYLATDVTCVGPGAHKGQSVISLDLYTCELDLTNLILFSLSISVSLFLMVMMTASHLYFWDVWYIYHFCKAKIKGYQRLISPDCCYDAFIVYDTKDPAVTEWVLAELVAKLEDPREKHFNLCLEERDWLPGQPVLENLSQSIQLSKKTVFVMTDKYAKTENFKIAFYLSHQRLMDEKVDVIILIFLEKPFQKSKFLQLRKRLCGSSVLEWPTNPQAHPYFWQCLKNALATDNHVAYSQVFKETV

human TLR8 = molecular target: T2, human TLR8 (Homo sapiens, UniProt Q9NR97); conditions: in vitro; reference (5); cited from earlier work
T2 sequence (Q9NR97 27-1041): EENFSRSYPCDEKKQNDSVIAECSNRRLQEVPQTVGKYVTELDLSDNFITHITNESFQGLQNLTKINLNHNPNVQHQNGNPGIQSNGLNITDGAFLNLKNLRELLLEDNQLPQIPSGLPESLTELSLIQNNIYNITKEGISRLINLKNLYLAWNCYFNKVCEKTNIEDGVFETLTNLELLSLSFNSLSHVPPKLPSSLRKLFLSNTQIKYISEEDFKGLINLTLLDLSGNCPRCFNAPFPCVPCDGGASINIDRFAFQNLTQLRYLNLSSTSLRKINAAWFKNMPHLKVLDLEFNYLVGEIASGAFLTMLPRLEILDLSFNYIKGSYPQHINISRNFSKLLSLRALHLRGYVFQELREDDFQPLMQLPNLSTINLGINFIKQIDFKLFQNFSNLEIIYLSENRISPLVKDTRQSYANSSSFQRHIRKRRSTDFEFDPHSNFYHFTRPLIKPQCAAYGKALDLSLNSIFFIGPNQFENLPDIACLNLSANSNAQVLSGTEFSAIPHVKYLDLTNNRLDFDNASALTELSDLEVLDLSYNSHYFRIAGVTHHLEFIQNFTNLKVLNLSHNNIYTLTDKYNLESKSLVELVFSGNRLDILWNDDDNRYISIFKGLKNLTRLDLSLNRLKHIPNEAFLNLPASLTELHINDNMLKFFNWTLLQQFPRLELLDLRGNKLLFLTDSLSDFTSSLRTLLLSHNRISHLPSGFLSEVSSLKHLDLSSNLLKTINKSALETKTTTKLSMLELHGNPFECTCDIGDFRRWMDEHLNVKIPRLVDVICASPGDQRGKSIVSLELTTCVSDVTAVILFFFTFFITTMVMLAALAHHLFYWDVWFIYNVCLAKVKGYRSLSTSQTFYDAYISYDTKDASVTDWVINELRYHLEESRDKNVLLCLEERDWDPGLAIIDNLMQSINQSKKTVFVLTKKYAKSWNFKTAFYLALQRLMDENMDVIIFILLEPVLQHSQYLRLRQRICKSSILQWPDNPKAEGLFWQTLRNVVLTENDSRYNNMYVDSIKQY

[1] = imidazoquinolines such as 3M-052; reference (9); cited from earlier work
[2] = Adsorption to Alhydrogel® (aluminum oxyhydroxide): unbound material assayed in centrifuged supernatant; format: physicochemical; conditions: for TLR Agonist Conc. In Supernatant (T = 16 wks): storage at 5° C.; for TLR Agonist Conc. In Supernatant (T = 16 wks) / TLR Agonist Conc. In Supernatant (T = 0): the ligand itself, in combinations first value = 3M-052
Procedure: Adjuvant formulation characterization and stability. Aqueous nanosuspensions were characterized for particle size by dynamic light scattering (DLS) using the Malvern Instruments (Worcestershire, UK) Zetasizer Nano-S or —ZS. Aqueous nanosuspensions were diluted 1:10 or 1:100 fold in water in a polystyrene cuvette prior to analysis, which consisted of three measurements resulting in a scattering intensity-biased average diameter value reported as the Z-ave. Zeta potential was measured using the Zetasizer Nano-ZS using a disposable capillary cell, with nine consecutive measurements collected from each sample prepared at 1:10 dilution in water. In general, 3M-052 concentration was measured by UV absorbance at 322.5 nm after diluting formulations 1:20 into ethanol:HCl (98:2 v:v) and comparing to a standard curve. The dilution into organic solvent removes potential interference from light scattering of the nanosuspension particles. However, for the 3M-052 binding isotherm, where maximum sensitivity was desired, no dilution was performed for the samples or the standards. Alternatively, 3M-052 concentration was determined by reverse phase HPLC with charged aerosol detection. TLR9 CpG control concentration was measured by UV absorbance at 260 nm after 1:20 dilution into ethanol:HCl. GLA concentration was measured by reverse-phase HPLC with an C18 column (Atlantis T3 or Agilent XBridge) and charged aerosol detection (CAD) using a methanol:chloroform:water mobile gradient as described previously (6). To detect unbound TLR ligand, alum-containing formulations were centrifuged briefly as indicated and the supernatant assayed by UV absorbance or HPLC-CAD. Depending on experiment, centrifugation time was 2-5 min at 2,000-16,000×g. In some experiments (FIG. 2D and Table 4), to remove the influence of saline or buffer salts on the sedimentation of TLR agonists in aluminum salt preparations, aluminum salts were first centrifuged and the supernatants removed and replaced with water; this process was repeated for another wash prior to employing the aluminum salts in the binding studies.
Antigen adsorption to aluminum salts. Binding efficiency of 3M-052 and ID93 or HIV gp120 antigen to Alhydrogel® and AdjuPhos® was determined by UV-Vis Spectroscopy and SDS-PAGE with silver stain. 1-mL of formulation was prepared by mixing saline diluent, antigen, 3M-052-AF, and/or aluminum salt. To determine HIV gp120 antigen adsorption, 30 μl of sample supernatant was mixed with 10 μl of 4× reducing or non-reducing LDS Sample Buffer, following which 20-25 μl was loaded into a 10-lane SDS-PAGE gel with 15 μl of SeeBlue2 Prestained Standard. To determine ID93 adsorption, 45 μl of sample supernatant was mixed with 15 μl of 4× reducing LDS Sample Buffer, following which 25 μl was loaded into a 10-lane SDS-PAGE gel with 15 μl of SeeBlue2 Prestained Standard. The gels were run for 55 minutes at 190 V and then placed into a fixing solution of 50:40:10 EtOH:CH3COOH:H2O for overnight. […]
To determine the adsorption capacity of Alhydrogel® for 3M-052-AF, the nanosuspension at various concentrations was mixed with aluminum oxyhydroxide and allowed to sit for ˜30 min with intermittent vortexing, followed by centrifugation such that the aluminum particles pelleted. […] The adsorption stability of 3M-052-AF on Alhydrogel® over time was evaluated by assaying samples for unbound 3M-052 before and after storage at 5° C. for 16 wks. […]

effect of other TLR ligands on adsorption of 3M-052 to aluminum oxyhydroxide ([2]; co-adsorbed GLA or TLR9 CpG control (Table 2)): did not appear to interfere
TLR Agonist Conc. In Supernatant (T = 16 wks) ([2]; no aluminum salt (control)): 74 ± 1 µg/mL
TLR Agonist Conc. In Supernatant (T = 0) ([2]; no aluminum salt (control)): 94 ± 1 µg/mL
TLR Agonist Conc. In Supernatant (T = 16 wks) ([2]; with Alhydrogel®): 10 ± 1 µg/mL
TLR Agonist Conc. In Supernatant (T = 0) ([2]; with Alhydrogel®): 11 ± 1 µg/mL
Compound: CCCCCCCCCCCCCCCCCC(=O)NCCCCOn1c(CCCC)nc2c(N)nc3ccccc3c21 [3M-052, N-(4-{[4-amino-2-butyl-1H-imidazo[4,5-c]quinolin-1-yl]oxy}butyl)octadecanamide]
activation of human TLR7 (human TLR7): activates
activation of human TLR8 (human TLR8): activates
pKa [1]: ~7
